Values quoted from earlier work, collected in patent publication US20190038644A1, “PREPARATION FOR NASAL-NASOPHARYNGEAL TREATMENT” (priority 2017, published 2019).

Columns and labels:
[1] = test system: E. Coli and other bacteria; conditions: versus fructose in cranberries
[2] = test system: E. coli adherence to human uroepithelial cells; conditions: addition of 2.5% D-mannose to E. coli uroepithelial cell suspensions; even when epithelial cells highly receptive
[3] = not metabolized like other sugars, does not alter blood sugar levels

O=C[C@@H](O)[C@@H](O)[C@H](O)[C@H](O)CO [D-mannose]
activity in inhibiting adherence relative to the fructose in cranberries [1]: 10 times
inhibition of adherence of E. coli to uroepithelial cells [2]: completely inhibited adherence
entry into blood stream [3]: does not enter the blood stream
